Data reported in US11746374B2, “Methods and platform for screening and selecting metabolites and their receptors” (BOARD OF REGENTS, THE UNIVERSITY OF TEXAS SYSTEM, priority 2017, dated 2023).
Like-named read-outs stand apart in the source and are kept apart here. One block for each molecule: values may come before it.

What was measured:
human 5HT1A = molecular target: T1, human 5HT1A (Homo sapiens, UniProt P08908); test: GPCR-CPR proof of concept, emulsion PCR amplification in yeast; type: cell-based; details: cells treated with 250 μM serotonin vs negative control; single-copy integration at HO site
T1 construct: expressed in transfected cells; host or cells: Saccharomyces cerevisiae JG05-2.0 (2 micron plasmid, pTDH3) / JG05-1.0 (single-copy integration at HO)
T1 sequence (P08908 1-422): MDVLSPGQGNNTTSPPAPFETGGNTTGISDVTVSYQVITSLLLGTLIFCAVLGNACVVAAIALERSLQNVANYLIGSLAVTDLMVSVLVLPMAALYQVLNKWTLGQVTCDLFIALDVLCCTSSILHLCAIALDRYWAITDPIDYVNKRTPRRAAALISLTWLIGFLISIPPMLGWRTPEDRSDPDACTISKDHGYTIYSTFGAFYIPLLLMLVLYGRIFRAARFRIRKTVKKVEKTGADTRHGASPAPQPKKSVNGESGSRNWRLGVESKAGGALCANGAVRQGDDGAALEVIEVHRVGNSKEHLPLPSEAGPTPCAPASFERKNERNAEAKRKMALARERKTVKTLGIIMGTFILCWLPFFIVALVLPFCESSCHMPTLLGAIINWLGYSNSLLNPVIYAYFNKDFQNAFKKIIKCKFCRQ
Description: Having shown functionality of the 5HT1A receptor, CPR strains (JG05-1.0) were constructed using this receptor. […] However, background was mitigated by increasing the pH of the CPR master mix to pH 8.8 and lowering the number of cycles from 35 to 20 during the emulsion PCR. […] Further optimization of expression parameters can greatly increase the signal:noise. For example, a much more pronounced difference can be seen when expressing the receptor from a high-copy plasmid. The experiments outlined here were also performed with cells growing with the ligand for 18 hours. By concentrating the cells and limiting the time of induction, a decrease in background signal can be seen.
Control cells were not induced. Cells (3 mL total) were collected after 18 hours of induction and spun in a tabletop centrifuge at 3,000×g for 5 minutes. The supernatant was discarded and the cell pellet was washed in water and then resuspended in 1 M sorbitol, 25 mM EDTA, 50 mM DTI′. Cells were collected again and washed in 1 M sorbitol. After another wash with water, cells were resuspended in 500 μL PCR mastermix (pH 8.0 or pH 8.8). The resuspended cells were placed into a 2 mL tube with a 1 mL rubber syringe plunger and 1200 μL of oil mix (876 Tegosoft DEC, 84 Gransurf W9, and 240 μL light mineral oil (Sigma-Aldrich)). […]

P2X1 = molecular target: T2, P2X1 (Homo sapiens, UniProt P51575); test: Aequorin functional assay of P2X receptors in yeast; type: cell-based; details: upon ATP addition
T2 construct: expressed in transfected cells; host or cells: Saccharomyces cerevisiae BY4741 dCne1p, genome-integrated under the GAL1 promoter
T2 sequence (P51575 1-399): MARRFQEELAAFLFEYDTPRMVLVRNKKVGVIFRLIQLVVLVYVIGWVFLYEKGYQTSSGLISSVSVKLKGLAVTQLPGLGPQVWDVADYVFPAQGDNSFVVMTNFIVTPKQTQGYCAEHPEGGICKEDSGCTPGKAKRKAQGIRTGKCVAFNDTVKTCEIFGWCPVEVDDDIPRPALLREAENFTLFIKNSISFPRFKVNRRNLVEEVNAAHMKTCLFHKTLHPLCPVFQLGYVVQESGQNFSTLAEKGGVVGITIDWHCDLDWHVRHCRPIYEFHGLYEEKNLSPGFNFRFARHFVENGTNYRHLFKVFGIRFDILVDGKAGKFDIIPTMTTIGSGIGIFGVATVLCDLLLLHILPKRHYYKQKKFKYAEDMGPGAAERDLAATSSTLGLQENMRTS
Experimental: (§1) Ion channel activity in yeast was tested with the purinergic P2X ion channel family. Channel gating was assessed by an aequorin assay in which aequorin is co-expressed with the receptor and, upon addition of the prosthetic group coelenterazine and addition of calcium, blue light is released. The aequorin-based functional assay was performed in all seven P2X receptors (FIG. 8). P2X1-7 were integrated into the chromosome to mitigate copy number variation between clones and were induced with galactose with the pGal1 promoter. […] Among those receptors that didn't work, it was suspected that improvements in expression and trafficking can improve functionality. For example, by modulating trafficking domains within the P2X4 receptor, aggregation was reduced in vesicles (FIG. 9), and it is believed that this tactic can be employed in other receptors. […] This can be because P2X2 has the slowest desensitization rates of the family (and is often considered “non-desensitizing”) and has the highest unitary conductance (30 pS).
(§2) BY4741ΔCne1p cells were transformed with vectors containing P2X variants. Transformants were validated and made competent for a subsequent transformation with a vector containing aequorin under the expression of the constitutive PGK2 promoter. Overnight cells were induced with 2% […] for 20 hours. Following receptor expression, cells were collected by centrifugation and concentrated to 500 μL. The concentrated cells were then incubated with 5 μL of 1 mg/mL coelenterazine for 30 minutes at room temperature. Washed cells were then resuspended in softening buffer (1 M Sorbitol, 25 mM EDTA, 50 mM DTT), followed by washes in 1 M sorbitol and water. […] Using an F500, 25 μL of cells were monitored for luminescence for 5 seconds. Upon addition of ligand or buffer (100 μL), cells were monitored for luminescence for varying times. […] Luminescence was monitored before and after the addition of 100 μL of 10 μM ATP. Areas under the curve were calculated and plotted against a negative control to determine the IC50.

P2X4 = molecular target: T3, P2X4 (Homo sapiens, UniProt Q99571); test: as above; type: cell-based; details: upon ATP addition
T3 construct: expressed in transfected cells; host or cells: Saccharomyces cerevisiae BY4741 dCne1p, single-copy integration, GAL1 promoter
T3 sequence (Q99571 with tags, fused parts or gaps): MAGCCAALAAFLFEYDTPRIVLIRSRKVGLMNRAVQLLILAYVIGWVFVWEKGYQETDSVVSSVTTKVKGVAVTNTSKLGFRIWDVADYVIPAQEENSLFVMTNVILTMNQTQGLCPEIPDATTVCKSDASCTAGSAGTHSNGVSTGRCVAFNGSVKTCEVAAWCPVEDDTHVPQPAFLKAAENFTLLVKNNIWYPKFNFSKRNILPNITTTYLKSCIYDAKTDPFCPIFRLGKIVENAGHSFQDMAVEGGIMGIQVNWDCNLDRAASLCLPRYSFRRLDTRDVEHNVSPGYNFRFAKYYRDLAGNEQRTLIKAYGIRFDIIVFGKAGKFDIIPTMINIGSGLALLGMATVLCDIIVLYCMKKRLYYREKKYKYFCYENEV
Experimental: as §1, §2

P2X7 = molecular target: T4, P2X7 (Homo sapiens, UniProt Q99572); test: as above; type: cell-based; details: upon ATP addition
T4 construct: expressed in transfected cells; host or cells: Saccharomyces cerevisiae BY4741 dCne1p, genome-integrated under the GAL1 promoter
T4 sequence (Q99572 1-595): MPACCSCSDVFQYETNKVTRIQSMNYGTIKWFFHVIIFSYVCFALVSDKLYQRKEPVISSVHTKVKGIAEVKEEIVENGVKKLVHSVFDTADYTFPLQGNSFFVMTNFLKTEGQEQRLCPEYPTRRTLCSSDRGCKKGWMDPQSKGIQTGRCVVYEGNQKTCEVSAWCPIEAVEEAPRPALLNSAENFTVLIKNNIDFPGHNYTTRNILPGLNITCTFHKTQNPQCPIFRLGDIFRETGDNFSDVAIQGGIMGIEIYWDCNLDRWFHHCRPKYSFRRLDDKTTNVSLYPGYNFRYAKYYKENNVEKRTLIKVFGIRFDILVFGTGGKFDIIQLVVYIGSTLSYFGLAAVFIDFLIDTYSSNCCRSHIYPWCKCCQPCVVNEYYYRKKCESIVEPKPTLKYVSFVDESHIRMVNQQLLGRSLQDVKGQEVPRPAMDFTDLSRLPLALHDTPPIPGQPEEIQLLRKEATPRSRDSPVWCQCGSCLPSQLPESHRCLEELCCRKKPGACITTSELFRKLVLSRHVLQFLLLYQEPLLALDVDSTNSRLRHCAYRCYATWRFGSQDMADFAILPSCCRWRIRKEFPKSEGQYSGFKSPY
Experimental: as §1, §2

P2X2 [1] = molecular target: T5, P2X2 (Homo sapiens, UniProt Q9UBL9); test: Plate-based aequorin luminescence assay of P2X2 expressed in yeast; type: cell-based; set-up: expressed in transfected cells; host or cells: Saccharomyces cerevisiae BY4741 dCne1p, genome-integrated under the GAL1 promoter, aequorin on a high-copy plasmid
T5 sequence (Q9UBL9 1-471): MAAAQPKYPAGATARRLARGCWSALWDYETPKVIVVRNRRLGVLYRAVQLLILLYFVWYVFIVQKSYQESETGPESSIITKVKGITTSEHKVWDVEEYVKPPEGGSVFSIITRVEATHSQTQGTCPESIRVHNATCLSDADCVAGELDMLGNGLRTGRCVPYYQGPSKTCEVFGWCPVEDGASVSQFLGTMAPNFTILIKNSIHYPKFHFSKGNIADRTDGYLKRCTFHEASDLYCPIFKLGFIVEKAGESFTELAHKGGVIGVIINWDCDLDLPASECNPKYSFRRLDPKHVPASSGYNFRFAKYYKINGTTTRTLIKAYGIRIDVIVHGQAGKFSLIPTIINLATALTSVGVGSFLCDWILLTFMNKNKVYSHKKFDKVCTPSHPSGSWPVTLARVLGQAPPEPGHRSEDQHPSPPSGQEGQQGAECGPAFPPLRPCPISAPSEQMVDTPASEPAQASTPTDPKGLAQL
Experimental: as §1
To determine whether or not this truncated channel gated in yeast, an aequorin-based functional assay was used. Here aequorin, a bioluminescent protein, emits a photon upon binding calcium. This is done with the aid of coelenterazine, which must be added exogenously to yeast. The reaction is not catalytic, and the off-rate of calcium is too slow to observe on the timescales utilized in our assays. To optimize conditions for expression of both the receptor and reporter, a combination of integration, low-copy, and high-copy vectors was used. At this point, it was only possible to produce a signal upon addition of ATP, the native ligand, when both the receptor and reporter were expressed on high-copy plasmids (FIG. 56).
BY4741ΔCne1p cells were transformed with vectors containing P2X variants. Transformants were validated and made competent for a subsequent transformation with a vector containing aequorin under the expression of the constitutive PGK2 promoter. Overnight cells were induced with 2% […] for 20 hours. Following receptor expression, cells were collected by centrifugation and concentrated to 500 μL. The concentrated cells were then incubated with 5 μL of 1 mg/mL coelenterazine for 30 minutes at room temperature. Washed cells were then resuspended in softening buffer (1 M Sorbitol, 25 mM EDTA, 50 mM DTT), followed by washes in 1 M sorbitol and water. Cells were then resuspended in 50 mM MES/Tris pH 6.5 and aliquoted into a 96-well plate. Using an F500, 25 μL of cells were monitored for luminescence for 5 seconds. Upon addition of ligand or buffer (100 μL), cells were monitored for luminescence for varying times. Cell lysis was performed with the addition of 100 μL Tween20. For inhibition, varying concentrations of suramin were incubated with cells. Luminescence was monitored before and after the addition of 100 μL of 10 μM ATP. Areas under the curve were calculated and plotted against a negative control to determine the IC50.

P2X2 [2] = molecular target: T5, P2X2; details: Baqi et al., 2011; Lambrecht et al., 2002; read-out: range of reported IC50 values; cited from earlier work

Structure (SMILES): NCCc1c[nH]c2ccc(O)cc12 [serotonin]
increase in signal of CPR amplification product (human 5HT1A): 20 fold

Structure (SMILES): Nc1ncnc2c1ncn2[C@@H]1O[C@H](COP(=O)(O)OP(=O)(O)OP(=O)(O)O)[C@@H](O)[C@H]1O [ATP]
ligand-dependent gating, calcium influx (P2X1): showed an ATP-dependent calcium influx
ligand-dependent gating, calcium influx (P2X4): showed an ATP-dependent calcium influx
ligand-dependent gating, calcium influx (P2X7): showed an ATP-dependent calcium influx
agonism / gating of P2X2 (P2X2 [1]; aequorin luminescence): showed an ATP-dependent calcium influx
EC50 (P2X2 [1]; dose-response, area under luminescence curve): 6.7 ± 1.5 µM

IC50 (P2X2 [1]; cells equilibrated with suramin, then 10 μM ATP): 31.6 ± 1.4 µM
Structure (SMILES): Cc1ccc(C(=O)Nc2ccc(S(=O)(=O)O)c3cc(S(=O)(=O)O)cc(S(=O)(=O)O)c23)cc1NC(=O)c1cccc(NC(=O)Nc2cccc(C(=O)Nc3cc(C(=O)Nc4ccc(S(=O)(=O)O)c5cc(S(=O)(=O)O)cc(S(=O)(=O)O)c45)ccc3C)c2)c1 [suramin]
IC50 (P2X2 [2]): 2 to 48 µM
